{"source": "ChEMBL document CHEMBL2046425", "about": "“Neamphamide B, new cyclic depsipeptide, as an anti-dormant mycobacterial substance from a Japanese marine sponge of Neamphius sp” (2012)", "key": {"[1]": {"system": "Mycolicibacterium smegmatis", "assay": "Antimicrobial activity against Mycobacterium smegmatis under dormancy-inducing hypoxic condition for 96 hrs by MTT assay", "type": "functional"}, "[2]": {"system": "Mycolicibacterium smegmatis", "assay": "Antimicrobial activity against Mycobacterium smegmatis under aerobic condition for 36 hrs by MTT assay", "type": "functional"}}, "data": [{"smiles": "COC(c1ccc(O)cc1)C1NC(=O)[C@H](CCC(N)=O)N(C)C(=O)[C@H](CC(C)C)NC(=O)[C@@H](CCCNC(=N)N)NC(=O)[C@@H]([C@@H](C)O)NC(=O)[C@H](NC(=O)C(NC(=O)[C@H](O)[C@H](O)[C@H](CCCNC(=N)N)NC(=O)[C@@H](CC(N)=O)NC(=O)C(C)C(O)C(C)CC(C)C)C(C)C(C)C(N)=O)[C@@H](C)OC(=O)[C@@H]2CCCCN2C1=O", "note": "(some centres not stated) [NEAMPHAMIDE B]", "values": [{"measurement": "MIC", "setting": "[1]", "result": 1.56, "unit": "µg/mL"}, {"measurement": "MIC", "setting": "[2]", "result": 1.56, "unit": "µg/mL"}]}]}
